Laboratory results from patent US20030186892A1, “Enhancement of endogenous gonadotropin production” (priority 2002, published 2003).

Key:
testosterone = conditions: 5 mg b.i.d. (Group B) compared with 10 mg q.d. (Group C), oral
Procedure: Twenty subjects were assigned to each dosing group. Dosing groups were dosed sequentially, beginning with 5 mg q.d. group (Group A). Dosing for the 5 mg b.i.d. group (Group B) commenced 2 weeks after the initiation of Group A and the dosing for the 10 mg q.d. group (Group C) began 2 weeks after initiation of the 5 mg b.i.d. group. […] For all measurements, the final value obtained before the start of the study drug administration was used as the baseline value for that variable.

[1] = in vivo
Procedure: A study was conducted to determine the bioavailability of leuprolide acetate when it was administered by the sublingual route. The study was conducted in fifteen healthy postmenopausal or surgically sterilized female volunteers. This study was conducted according to a single-dose, fasting, four-period, open-label, randomized design. […] 4.5 mg or a 1 mg subcutaneous dose. […] Five-ml plasma samples were collected by venipuncture prior to the study and at suitable time intervals after dosing. Plasma leuprolide acetate concentrations data was tabulated and the descriptive statistics were computed.

Administered sublingual dose absorbed compared to subcutaneous reference [1]: Approximately 1%
Structure (SMILES): CCNC(=O)[C@@H]1CCCN1C(=O)[C@H](CCCNC(=N)N)NC(=O)[C@H](CC(C)C)NC(=O)[C@@H](CC(C)C)NC(=O)[C@H](Cc1ccc(O)cc1)NC(=O)[C@H](CO)NC(=O)[C@H](Cc1c[nH]c2ccccc12)NC(=O)[C@H](Cc1c[nH]cn1)NC(=O)[C@@H]1CCC(=O)N1 [leuprolide acetate]
Elevation of plasma testosterone, comparison of regimens (testosterone): more significant elevation of plasma testosterone
